ChEMBL document CHEMBL1147043, “Comparative metabolism of radiolabeled muraglitazar in animals and humans by quantitative and qualitative metabolite profiling” (Drug Metab Dispos, 2007)

Assays:
[1] = target: T1, Peroxisome proliferator-activated receptor gamma (Homo sapiens, UniProt P37231); assay: Binding affinity at PPAR gamma receptor
T1 sequence (P37231 whole entry): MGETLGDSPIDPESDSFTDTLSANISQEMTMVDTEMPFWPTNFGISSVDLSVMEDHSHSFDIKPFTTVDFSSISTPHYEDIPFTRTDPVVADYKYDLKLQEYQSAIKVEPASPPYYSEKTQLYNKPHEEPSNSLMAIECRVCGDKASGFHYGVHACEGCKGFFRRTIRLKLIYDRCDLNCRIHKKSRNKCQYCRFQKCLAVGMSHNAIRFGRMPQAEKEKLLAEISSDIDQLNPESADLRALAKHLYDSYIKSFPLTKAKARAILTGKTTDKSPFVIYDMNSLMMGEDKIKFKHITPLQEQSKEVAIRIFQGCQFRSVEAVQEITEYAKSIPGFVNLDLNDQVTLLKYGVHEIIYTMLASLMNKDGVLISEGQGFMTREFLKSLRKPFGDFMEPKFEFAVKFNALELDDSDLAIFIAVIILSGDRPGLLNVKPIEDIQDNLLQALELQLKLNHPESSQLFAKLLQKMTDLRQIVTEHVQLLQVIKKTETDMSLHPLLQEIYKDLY

[2] = target: T2, Peroxisome proliferator-activated receptor alpha (Homo sapiens, UniProt Q07869); assay: (§1) Agonist activity at PPAR alpha in human HEK cells by transactivation assay; assay type: functional, cell-based, HEK293
T2 sequence (Q07869 whole entry): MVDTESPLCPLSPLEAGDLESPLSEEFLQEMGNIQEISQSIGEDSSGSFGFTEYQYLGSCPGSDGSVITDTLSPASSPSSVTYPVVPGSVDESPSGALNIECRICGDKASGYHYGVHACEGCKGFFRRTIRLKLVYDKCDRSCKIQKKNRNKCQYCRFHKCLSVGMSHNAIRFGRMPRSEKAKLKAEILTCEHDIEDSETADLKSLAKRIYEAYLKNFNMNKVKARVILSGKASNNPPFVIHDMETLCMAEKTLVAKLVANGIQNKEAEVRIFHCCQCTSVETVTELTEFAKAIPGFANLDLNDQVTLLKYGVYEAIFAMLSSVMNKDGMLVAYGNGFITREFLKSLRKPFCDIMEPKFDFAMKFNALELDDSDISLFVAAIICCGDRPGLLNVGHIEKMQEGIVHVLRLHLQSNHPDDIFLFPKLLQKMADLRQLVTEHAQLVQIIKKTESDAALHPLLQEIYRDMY

[3] = Bile excretion of compound in bile duct-cannulated orally dosed cynomolgus monkey within 48 hrs; assay type: ADME, organism-based, Macaca fascicularis; conditions: po, read-out: Activity
[4] = target: T2, Peroxisome proliferator-activated receptor alpha; assay: Binding affinity at PPAR alpha receptor
[5] = target: T3, Peroxisome proliferator-activated receptor alpha (Homo sapiens) (UniProt Q07869); assay: Intrinsic activity at PPAR alpha in human HEK cells at 1 uM by transactivation assay; assay type: cell-based; conditions: HEK293
T3 sequence (whole entry): T2 sequence (Q07869 whole entry)

[6] = target: T3, Peroxisome proliferator-activated receptor alpha (Homo sapiens); assay: as §1; assay type: functional, cell-based; conditions: HEK293
[7] = Bile excretion of compound in bile duct-cannulated orally dosed Sprague-Dawley rat within 24 hrs; assay type: ADME, organism-based; conditions: po, read-out: Activity
[8] = Cmax in Sprague-Dawley rat at 10 mg/kg, po after 96 hrs; assay type: ADME, organism-based; set-up: dose 10 mg/kg, route oral; conditions: in vivo
[9] = Half life in Beagle dog at 2 mg/kg, po after 12 hrs; assay type: ADME, organism-based, Canis lupus familiaris; set-up: dose 2 mg/kg, route oral; conditions: in vivo
[10] = Half life in cynomolgus monkey at 1.9 mg/kg, po after 144 hrs; assay type: ADME, organism-based, Macaca fascicularis; set-up: dose 1.9 mg/kg, route oral; conditions: in vivo
[11] = Half life in human at 10 mg, po after 192 hrs; assay type: ADME, organism-based; conditions: in vivo
[12] = Tmax in Beagle dog at 2 mg/kg, po after 12 hrs; assay type: ADME, organism-based, Canis lupus familiaris; set-up: dose 2 mg/kg, route oral; conditions: in vivo
[13] = AUC (0 to T) in cynomolgus monkey at 1.9 mg/kg, po after 144 hrs; assay type: ADME, organism-based, Macaca fascicularis; set-up: time < 144 hr, dose 1.9 mg/kg, route oral; conditions: plasma
[14] = AUC (0 to T) in Beagle dog at 2 mg/kg, po after 12 hrs; assay type: ADME, organism-based, Canis lupus familiaris; set-up: time < 12 hr, dose 2 mg/kg, route oral; conditions: plasma
[15] = Tmax in human at 10 mg, po after 192 hrs; assay type: ADME, organism-based; conditions: in vivo
[16] = Half life in Sprague-Dawley rat at 10 mg/kg, po after 96 hrs; assay type: ADME, organism-based; set-up: dose 10 mg/kg, route oral; conditions: in vivo
[17] = Cmax in cynomolgus monkey at 1.9 mg/kg, po after 144 hrs; assay type: ADME, organism-based, Macaca fascicularis; set-up: dose 1.9 mg/kg, route oral; conditions: in vivo
[18] = Tmax in Sprague-Dawley rat at 10 mg/kg, po after 96 hrs; assay type: ADME, organism-based; set-up: dose 10 mg/kg, route oral; conditions: in vivo
[19] = Tmax in cynomolgus monkey at 1.9 mg/kg, po after 144 hrs; assay type: ADME, organism-based, Macaca fascicularis; set-up: dose 1.9 mg/kg, route oral; conditions: in vivo
[20] = AUC (0 to T) in Sprague-Dawley rat at 10 mg/kg, po after 96 hrs; assay type: ADME, organism-based; set-up: time < 96 hr, dose 10 mg/kg, route oral; conditions: plasma
[21] = Cmax in human at 10 mg, po after 192 hrs; assay type: ADME, organism-based; set-up: dose 10 mg, route oral; conditions: in vivo
[22] = Cmax in Beagle dog at 2 mg/kg, po after 12 hrs; assay type: ADME, organism-based, Canis lupus familiaris; set-up: dose 2 mg/kg, route oral; conditions: in vivo
[23] = AUC (0 to T) in human at 10 mg, po after 192 hrs; assay type: ADME, organism-based; set-up: dose 10 mg, time < 192 hr, route oral; conditions: plasma

SMILES | IC50 [1] | EC50 [2] | dose excreted at 48 h [3] | IC50 [4] | also measured
COc1ccc(OC(=O)N(CC(=O)O)Cc2ccc(O)cc2)cc1 | > 15 µM | > 25 µM | < 5% | > 15 µM | –
COc1ccc(OC(=O)N(CC(=O)O)Cc2ccc(OCCc3nc(-c4ccccc4)oc3C(=O)O)cc2)cc1 | – | – | < 5% | – | –
COc1ccc(OC(=O)N(CC(=O)O)Cc2ccc(OCCc3nc(-c4ccccc4)oc3C)cc2)cc1 | – | – | – | – | Intrinsic activity [5]: 120%
COc1ccc(OC(=O)N(CC(=O)O)Cc2ccc(OCCc3nc(-c4ccc(O)cc4)oc3C)cc2)cc1 | 2.05 µM | 0.26 µM | < 5% | 0.099 µM | Intrinsic activity [5]: 78%; %max [6]: 93%
COc1ccc(OC(=O)N(CC(=O)O)Cc2ccc(OC(O)Cc3nc(-c4ccccc4)oc3CO)cc2)cc1 (configuration not stated) | – | – | < 5% | – | –
COc1ccc(OC(=O)N(CC(=O)O)Cc2ccc(OCCC(=O)NC(=O)c3ccccc3)cc2)cc1 | > 15 µM | > 25 µM | < 5% | > 15 µM | –
COc1ccc(OC(=O)N(CC(=O)O)Cc2ccc(OCCC(=O)N(C(C)=O)C(=O)c3ccccc3)cc2)cc1 | > 15 µM | > 25 µM | < 5% | > 15 µM | –
COc1ccc(OC(=O)N(CC(=O)O)Cc2ccc(OCC(O)c3nc(-c4ccccc4)oc3C)cc2)cc1 (configuration not stated) | – | – | < 5% | – | –
Cc1oc(-c2ccccc2)nc1CCOc1ccc(CN(CC(=O)O)C(=O)Oc2ccc(O)cc2)cc1 | > 15 µM | 6.89 µM | < 5% | 3.74 µM | Intrinsic activity [5]: 6%; %max [6]: 78%; dose excreted at 24 h [7]: 11%
Cc1oc(-c2ccc(O)cc2)nc1CCOc1ccc(CN(CC(=O)O)C(=O)Oc2ccc(O)cc2)cc1 | – | – | < 5% | – | –
COc1ccc(OC(=O)N(CC(=O)O)Cc2ccc(OCCc3nc(-c4ccccc4)oc3C)cc2)cc1.Cl [MURAGLITAZAR CHLORIDE] | – | 0.035 µM | – | 0.188 µM | Cmax [8]: 12800 ng/mL; half-life [9]: 5.7 h; half-life [10]: 18 h; half-life [11]: 35.1 h; Tmax [12]: 0.5 h; AUC(0-t) at 144 h [13]: 41000 ng·h/mL; AUC(0-t) at 12 h [14]: 1300 ng·h/mL; Tmax [15]: 1 h; half-life [16]: 10.3 h; Cmax [17]: 6900 ng/mL; Tmax [18]: 0.5 h; Tmax [19]: 1 h; AUC(0-t) at 96 h [20]: 101000 ng·h/mL; Cmax [21]: 1800 ng/mL; Cmax [22]: 800 ng/mL; AUC(0-t) at 192 h [23]: 12000 ng·h/mL
O=C(O)CN(Cc1ccc(O)cc1)C(=O)Oc1ccc(O)cc1 | – | – | < 5% | – | –
Cc1oc(-c2ccccc2)nc1C(O)COc1ccc(CN(CC(=O)O)C(=O)Oc2ccc(O)cc2)cc1 (configuration not stated) | – | – | < 5% | – | –
Cc1oc(-c2ccccc2)nc1CC(O)Oc1ccc(CN(CC(=O)O)C(=O)Oc2ccc(O)cc2)cc1 (configuration not stated) | – | – | < 5% | – | –
O=C(O)CN(Cc1ccc(OCCc2nc(-c3ccccc3)oc2CO)cc1)C(=O)Oc1ccc(O)cc1 | > 15 µM | 18.1 µM | < 5% | > 15 µM | Intrinsic activity [5]: 2%; %max [6]: 69%
COc1ccc(OC(=O)N(CC(=O)O)Cc2ccc(OCCc3nc(-c4ccc(O)cc4)oc3CO)cc2)cc1 | – | – | < 5% | – | –
COc1ccc(OC(=O)N(CC(=O)O)Cc2ccc(OCCc3nc(-c4ccccc4)oc3CO)cc2)cc1 | > 15 µM | 1.94 µM | < 5% | 3.09 µM | Intrinsic activity [5]: 24%; %max [6]: 88%
Cc1oc(-c2ccc(O[C@@H]3O[C@H](C(=O)O)[C@@H](O)[C@H](O)[C@H]3O)cc2)nc1CCOc1ccc(CN(CC(=O)O)C(=O)Oc2ccc(O)cc2)cc1 | – | – | < 5% | – | –
COc1ccc(OC(=O)N(CC(=O)O)Cc2ccc(OC(O)Cc3nc(-c4ccc(O)cc4)oc3C)cc2)cc1 (configuration not stated) | – | – | < 5% | – | –
COc1ccc(OC(=O)N(CC(=O)O)Cc2ccc(OCC(O)c3nc(-c4ccccc4)oc3CO)cc2)cc1 (configuration not stated) | – | – | < 5% | – | –
